The target of experiment [1] is T1, colocalization of Drp1 and Aβ (Homo sapiens, UniProt O00429).
T1 construct: SHSY5Y cells incubated with Aβ peptide 1-42 (20 uM final concentration); Anaspec (Aβ 1-42 peptide); host or cells: SHSY5Y human neuroblastoma cells
In words: Double-labeling immunofluorescence analysis of Drp1 and Aβ. Format: cell-based. As to the method:
Double-labeling immunofluorescence analysis of Drp1 and Aβ. To determine whether Drp1 localizes and interacts with Aβ, the inventors conducted double-labeling analysis of Drp1 and Aβ in DDQ pre-treated, post-treated and untreated, Aβ incubated cells.
Double labeling immunofluorescence analysis of Drp1 and Aβ. To determine the interaction between Drp1 and Aβ, the inventors conducted double-labeling immunofluorescence analysis, using an anti-Drp1 antibody (rabbit polyclonal, Santa Cruz Biotechnology) and 6E10 (Covance). As described earlier, the sections from AD patients and control subjects were deparaffinized and treated with sodium borohydrate to reduce autofluorescence.
For the first labeling, the Aβ incubated (DDQ pre-treated, post-treated and untreated) cells were incubated overnight with the anti-Drp1 antibody (1:200) at room temperature. On the day after this primary antibody incubation, the sections were washed with 0.5% Triton in PBS. They were then incubated with a secondary biotinylated anti-rabbit antibody at a 1:400 dilution (Vector Laboratories, Burlingame, Calif., USA) or a secondary biotinylated anti-mouse antibody (1:400) for 1 h at room temperature. They were incubated for 1 h with labeled streptavidin, an HRP solution (Molecular Probes). […]

The test system of experiment [2] is SHSY5Y cells. As to the kind of experiment: Cell viability test (MTT assay). The experiment is classed as cell-based, Human. As for the experimental part:
Cell viability test (MTT assay). Mitochondrial respiration, an indicator of cell viability, was assessed in the SHSY5Y cells from control and experimental treatments (n=4), using the mitochondrial-dependent reduction of 3-(4,5-dimethyl-thiazol-2-yl)-2,5-diphenyl-tetrazolium bromide (MTT) to formazan as described in Manczak et al..

Experiment [3] deals with SHSY5Y cells. As to the kind of experiment: ATP levels in isolated mitochondria. The experiment is classed as cell-based, Human. As for the experimental part: ATP levels. ATP levels were measured in mitochondria isolated from SHSY5Y neurons of control and experimental treatments (n=4) using the ATP determination kit (Molecular Probes) as described in Manczak et al..
Experiment [4] relates to mutant APPSwe/Ind mouse neuroblastoma (N2a) cells. In words: Co-immunoprecipitation and immunoblotting of mutant APPSwe/Ind cells. The experiment is classed as cell-based. To be noted: DDQ 250 nM 24 hrs vs mutant APPSwe/Ind cells untreated with DDQ. As to the method: Co-immunoprecipitation and immunoblotting analysis of mutant APPSwe/Ind cells treated with DDQ. To determine whether DDQ reduces the interaction of Aβ with Drp1 in mutant APPSwe/Ind cells, the inventors used mutant APPSwe/Ind cDNA construct transfected into mouse neuroblastoma (N2a) cells and further cells were treated with DDQ. The inventors performed immunoprecipitation with Aβ (6E10) antibody and immunoblotting analysis with 6E10 and the inventors also performed co-immunoprecipitation analysis with Aβ (6E10) antibody and immunoblotting analysis with Drp1 antibody. […] These findings further confirm that DDQ reduces full-length APP and 4 kDa Aβ and reduces interaction between Drp1 and Aβ.
Mutant APPSwe/Ind cells: The inventors purchased mutant APPSwe cDNA clone (pCAX-APPSwe/Ind) from Addgene—https://www.addgene.org and verified expression of mutant APP APPSwe/Ind cDNA and further sub-cloned into a mammalian expression vector (Arubala P. Reddy—unpublished observations). The inventors transfected mutant APPSwe/Ind cDNA into mouse neuroblastoma (N2a) cells for 24 hrs and after transfection, cells were treated with DDQ (250 nM) for 24 hrs. The inventors harvested mutant APPSwe/Ind cells treated and untreated with DDQ and prepared protein lysates and performed co-immunoprecipitation using Aβ (6E10) antibody and conducted immunoblotting analysis with 6E10 and Drp1 antibodies.
The inventors performed co-immunoprecipitation (co-IP) assays using the Dynabeads Kit for Immunoprecipitation (Invitrogen). Briefly, 50 μL of Dynabeads containing protein G was incubated with 10 μg 6E10 or 10 μg of the Drp1 antibodies (both mono- and polyclonal antibodies; Santa Cruz), with rotation, for 1 h at room temperature. The inventors used all the reagents and buffers provided in the kit. Details of antibodies used for co-IP and western blotting are given Table 5. The Dynabeads-Aβ complex was washed three times with a washing buffer and was then incubated overnight with 400 μg of protein at 4° C., with rotation. […]

Experiment [5] relates to SHSY5Y cells. In words: Cytochrome oxidase activity. The experiment is classed as cell-based, Human. As for the experimental part:
Cytochrome oxidase activity. Cytochrome oxidase activity was measured in the mitochondria isolated from SHSY5Y cells of control and experimental treatments (n=4), as described in Manczak et al.^33. Enzyme activity was assayed spectrophotometrically using a Sigma Kit (Sigma-Aldrich) following manufacturer's instructions.

The mark [6] stands for this setting: Aβ + DDQ (Aβ1-42 20 μM 6 hrs, then DDQ 24 hrs) vs untreated cells.
[7] abbreviates: DDQ 250 nM 24 hrs vs untreated cells.
Setting [8] is: DDQ + Aβ (DDQ 24 hrs, then Aβ1-42 6 hrs) vs Aβ incubated cells.
Setting [9] is: DDQ + Aβ (DDQ 24 hrs, then Aβ1-42 6 hrs) vs untreated cells.
Setting [10] is: Aβ + DDQ (Aβ1-42 6 hrs, then DDQ 24 hrs) vs Aβ incubated cells.

The source of these data is US12208108B2, “Drug targets of delayed aging and human brain diseases” (Texas Tech University System, priority 2016, dated 2025).

T1 sequence (O00429 whole entry): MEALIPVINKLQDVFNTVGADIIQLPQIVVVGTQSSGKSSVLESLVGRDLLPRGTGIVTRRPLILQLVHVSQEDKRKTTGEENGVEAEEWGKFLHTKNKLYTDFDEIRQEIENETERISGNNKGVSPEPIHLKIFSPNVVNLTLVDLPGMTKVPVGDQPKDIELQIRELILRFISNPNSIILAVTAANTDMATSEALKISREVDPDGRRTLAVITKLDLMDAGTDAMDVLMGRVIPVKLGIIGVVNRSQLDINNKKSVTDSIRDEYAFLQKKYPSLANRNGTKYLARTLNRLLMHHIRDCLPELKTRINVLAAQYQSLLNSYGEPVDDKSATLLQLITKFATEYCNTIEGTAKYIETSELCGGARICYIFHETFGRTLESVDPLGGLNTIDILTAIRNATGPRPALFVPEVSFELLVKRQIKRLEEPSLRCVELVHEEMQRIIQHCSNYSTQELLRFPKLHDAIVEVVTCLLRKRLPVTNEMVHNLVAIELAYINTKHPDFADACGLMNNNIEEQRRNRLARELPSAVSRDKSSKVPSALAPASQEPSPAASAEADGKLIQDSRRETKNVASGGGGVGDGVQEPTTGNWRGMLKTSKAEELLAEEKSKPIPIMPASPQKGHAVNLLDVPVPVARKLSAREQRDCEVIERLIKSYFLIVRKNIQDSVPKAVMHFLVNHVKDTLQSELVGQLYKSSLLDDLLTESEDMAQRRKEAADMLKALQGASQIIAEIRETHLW

Turning to `CCOP(=O)(OCC)C(NCCc1ccc(O)c(O)c1)c1ccnc2ccccc12` (stereo not drawn) [DDQ, diethyl(3,4-dihydroxyphenethylamine)(quinolin-4-yl)methylphosphonate], the “co-localization of Drp1 with Aβ” value in experiment [1] (DDQ post-treated Aβ incubated cells vs Aβ incubated cells alone) and in experiment [1] (DDQ pre-treated Aβ incubated cells vs Aβ incubated cells alone) was “reduced co-localization” throughout. The Cell viability entry in the experiment with SHSY5Y cells [2] (setting [6]) is given as “unchanged”; with SHSY5Y cells [2] (setting [7]) it was “significantly increased”; in the experiment on SHSY5Y cells [2] (setting [8]) it was “Significantly increased”; in the experiment with SHSY5Y cells [2] (setting [9]), “unchanged”. Moreover, the ATP levels result is “Significantly increased levels” with SHSY5Y cells [3] (setting [6]), “Significantly increased ATP levels” with SHSY5Y cells [3] (setting [10]), “Significantly increased levels” with SHSY5Y cells [3] (setting [7]) and “Significantly increased ATP levels” with SHSY5Y cells [3] (setting [8]). Also, the “4 kDa Aβ levels (IP 6E10, WB 6E10)” value in experiment [4] is given as “reduced levels”. The “Drp1 levels (co-IP 6E10, WB Drp1)” value in experiment [4] is on record as “reduced levels”. For the same compound, the “full-length APP levels (IP 6E10, WB 6E10)” value in experiment [4] is listed as “reduced levels”. In addition, the cytochrome oxidase activity entry with SHSY5Y cells [5] (setting [6]) is reported as “unchanged”; in the experiment on SHSY5Y cells [5] (setting [10]), “increased”; in the experiment with SHSY5Y cells [5] (setting [7]), “significantly increased levels”; in the experiment on SHSY5Y cells [5] (setting [8]) it was “increased”; in the experiment on SHSY5Y cells [5] (setting [9]), “unchanged”.
